Reference: ChEMBL document CHEMBL4402530, “New dimensions in the field of antimalarial research against malaria resurgence” (Eur J Med Chem, 2019)
Values belong to the compound of their own block, whether it stands above or below them.

Experiments:
[1] = tested on: Plasmodium falciparum; assay: Antiparasitic activity against Plasmodium falciparum D10; assay type: functional, organism-based
[2] = tested on: Plasmodium falciparum; assay: Antiparasitic activity against Plasmodium falciparum Dd2; assay type: functional, organism-based
[3] = tested on: Plasmodium falciparum; assay: Antiparasitic activity against Plasmodium falciparum 3D7; assay type: functional, organism-based; conditions: Plasmodium falciparum, 3D7
[4] = tested on: Plasmodium falciparum; assay: Antiparasitic activity against chloroquine-resistant Plasmodium falciparum Dd2; assay type: functional, organism-based
[5] = tested on: Plasmodium falciparum; assay: Antiparasitic activity against Plasmodium falciparum K1; assay type: functional, organism-based
[6] = tested on: Plasmodium falciparum; assay: Antiparasitic activity against Plasmodium falciparum C2B; assay type: functional, organism-based
[7] = tested on: Plasmodium falciparum; assay: Antiparasitic activity against Plasmodium falciparum D6; assay type: functional, organism-based
[8] = tested on: Plasmodium falciparum; assay: Antiparasitic activity against Plasmodium falciparum Tm90; assay type: functional, organism-based
[9] = tested on: Plasmodium berghei; assay: Antiparasitic activity against Plasmodium berghei ANKA infected in mouse assessed as mouse survival; assay type: functional
[10] = tested on: Plasmodium berghei; assay: Antiparasitic activity against Plasmodium berghei ANKA infected in CD1 mouse assessed as reduction in parasitemia; assay type: functional
[11] = tested on: Plasmodium falciparum; assay: Antiparasitic activity against Plasmodium falciparum W2; assay type: functional, organism-based; conditions: Plasmodium falciparum, W2
[12] = tested on: Plasmodium falciparum; assay: Antiparasitic activity against Plasmodium falciparum infected in mouse; assay type: functional

Compound: CC(CCNc1ccnc2cc(Cl)ccc12)NCCO[C@H]1O[C@@H]2O[C@@]3(C)CC[C@H]4[C@H](C)CC[C@@H]([C@H]1C)[C@@]24OO3 (stereo partly specified)
IC50 [1]: 17.1 nM
IC50 [2]: 12.2 nM

Compound: NS(=O)(=O)c1ccc(-n2cc(CCCNc3ccnc4cc(Cl)ccc34)nn2)cc1
IC50 [3]: 600 nM
IC50 [4]: 600 nM

Compound: NS(=O)(=O)c1ccc(-n2cc(CNc3ccnc4cc(Cl)ccc34)nn2)cc1
IC50 [3]: 600 nM
IC50 [4]: 600 nM

IC50 [3]: 19.7 nM
IC50 [5]: 52 nM
Compound: O=C(N/N=C/c1ccc(Br)cc1)C(=O)Nc1ccc(Nc2ccnc3cc(Cl)ccc23)cc1

IC50 [6]: 146 nM
IC50 [7]: 0.05 nM
IC50 [8]: 81 nM
IC50 [2]: 0.4 nM
Compound: CCCCCCCc1c(C)nc2cc(F)cc(F)c2c1OC(=O)OCCOCCOCCOCCOC

IC50 [3]: 19.7 nM
IC50 [5]: 52 nM
Compound: CC(C)(C)c1ccc(/C=N/NC(=O)C(=O)Nc2ccc(Nc3ccnc4cc(Cl)ccc34)cc2)cc1

Compound: OC(CN1CCC2(CC1)CC(O)c1ccc3ccccc3c1O2)c1ccc(F)c(F)c1 (stereo unspecified)
EC50 [4]: 350 nM
Survival [9]: >1.7 days

Compound: CC(C)(C)NCc1cc(Nc2ccnc3cc(Cl)ccc23)ccc1F
ED50 [10]: 5.3 mg/kg

Compound: NS(=O)(=O)c1ccc(-n2cc(CCNc3ccnc4cc(Cl)ccc34)nn2)cc1
IC50 [3]: 600 nM
IC50 [4]: 600 nM

Compound: NS(=O)(=O)c1cccc(-n2cc(CNc3ccnc4cc(Cl)ccc34)nn2)c1
IC50 [3]: 600 nM
IC50 [4]: 600 nM

Compound: COc1cc(NC(C)CCCNCc2ccc(CO[C@H]3O[C@@H]4O[C@@]5(C)CC[C@H]6[C@H](C)CC[C@@H]([C@H]3C)[C@@]46OO5)cc2)c2ncccc2c1 (stereo partly specified)
IC50 [11]: 112 nM

IC50 [6]: 146 nM
IC50 [7]: 0.05 nM
IC50 [8]: 81 nM
IC50 [2]: 0.4 nM
Compound: Cc1[nH]c2cc(F)cc(F)c2c(=O)c1CCCCCCCl

Compound: NS(=O)(=O)c1cccc(-n2cc(CCCNc3ccnc4cc(Cl)ccc34)nn2)c1
IC50 [3]: 600 nM
IC50 [4]: 600 nM

Compound: O[C@@H](c1cc(C(F)(F)F)nc2c(C(F)(F)F)cccc12)[C@H]1CCCCN1 [(S,R)-MEFLOQUINE]
IC50 [7]: 15.2 nM

Compound: C[C@H]1Cc2c([nH]c3cc(Cl)c(F)cc23)[C@@]2(N1)C(=O)Nc1ccc(Cl)cc12 [CIPARGAMIN]
ED50 [12]: 1 mg/kg
ED90 [12]: 3 mg/kg
ED99 [12]: 5 mg/kg

Compound: CC(C)c1cc2c(cc1O)[C@@]1(C)CCCC(C)(C)[C@@H]1CC2 [FERRUGINOL]
IC50 [11]: 0.9 to 4.2 µg/mL
IC50 [1]: 0.9 to 4.2 µg/mL
IC50 [7]: 0.9 to 4.2 µg/mL
IC50 [5]: 0.9 to 4.2 µg/mL
